Results on 38 compounds are retold here after ChEMBL document CHEMBL3882731, “Novel sulfonaminoquinoline Hepcidin antagonists” (2014).

This experiment deals with T1, Ferroportin (Homo sapiens, UniProt Q9NP59).
T1 sequence (Q9NP59 whole entry): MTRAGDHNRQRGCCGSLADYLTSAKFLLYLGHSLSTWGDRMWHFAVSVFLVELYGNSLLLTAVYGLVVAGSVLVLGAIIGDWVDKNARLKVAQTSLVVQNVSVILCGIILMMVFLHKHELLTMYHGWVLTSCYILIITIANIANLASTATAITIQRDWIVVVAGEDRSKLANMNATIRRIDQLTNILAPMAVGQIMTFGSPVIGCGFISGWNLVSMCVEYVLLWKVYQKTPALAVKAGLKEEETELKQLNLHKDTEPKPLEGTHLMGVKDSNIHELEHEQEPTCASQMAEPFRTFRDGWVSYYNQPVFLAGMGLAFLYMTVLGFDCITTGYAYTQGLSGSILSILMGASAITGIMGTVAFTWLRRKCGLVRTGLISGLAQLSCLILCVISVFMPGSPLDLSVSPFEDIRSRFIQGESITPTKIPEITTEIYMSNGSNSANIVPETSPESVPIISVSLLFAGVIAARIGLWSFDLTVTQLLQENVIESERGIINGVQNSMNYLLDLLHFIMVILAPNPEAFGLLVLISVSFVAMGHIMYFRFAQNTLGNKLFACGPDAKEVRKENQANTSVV
The experiment in a line: Antagonist activity at C-terminal halo-tag fused human ferroportin expressed in MDCK cells assessed as inhibition of hepcidin-induced ferroportin internalization after overnight incubation by Draq5 staining-based fluorescence assay. The class given is cell-based.
Turning to `CC(C)c1ccc2cccnc2c1NS(=O)(=O)c1ccccc1`, the IC50 (commonly the midpoint of a concentration-inhibition curve) stood at 100 µM. In the case of `COc1ccc(S(=O)(=O)Nc2cccc3ccc(C)nc23)c(N)c1` it was 100 µM. In the case of `COc1cc2cccnc2c2c1-c1ccccc1S(=O)(=O)N2` it was 100 µM; in that of `COc1ccnc2c(NS(=O)(=O)c3ccccc3)cccc12`, 100 µM; in that of `CC(=O)Nc1cc(C(F)(F)F)ccc1S(=O)(=O)Nc1cccc2cccnc12`, 100 µM.

Consider `O=S(=O)(Nc1cc(Cl)cc2cccnc12)c1ccccc1`, for which the IC50 was 100 µM. In the case of `Cc1ccc2cccc(NS(=O)(=O)c3ccccc3N)c2n1`, the IC50 was found to be 100 µM. `Cc1ccc2cccc(NS(=O)(=O)c3ccccc3)c2n1`: the IC50 was found to be 100 µM.

With `O=S(=O)(Nc1c(Cl)ccc2cccnc12)c1ccccc1`, the IC50 stood at 100 µM. In the case of `CN1c2c(ccc3cccnc23)-c2ccccc2S1(=O)=O` it was 100 µM; in that of `Cc1cc(NS(=O)(=O)c2ccccc2)c2ncccc2c1Cl`, 100 µM. Regarding `COc1cc(NS(=O)(=O)Nc2c(F)cccc2F)c2ncccc2c1`, the IC50 was 100 µM. In the case of `O=[N+]([O-])c1cc(C(F)(F)F)ccc1S(=O)(=O)Nc1cccc2cccnc12` it was 100 µM. Take `O=S(=O)(Nc1cccc2ccc(Cl)nc12)c1ccccc1`: the IC50 came out at 100 µM. In the case of `Cc1c(Cl)cccc1NS(=O)(=O)Nc1ccc(Cl)c2cccnc12` it was 100 µM. For `O=S(=O)(Nc1ccc(Br)c2cccnc12)c1ccccc1`, the IC50 was found to be 100 µM. In the case of `Cc1ccc2ccc3c(c2n1)NS(=O)(=O)c1ccccc1-3` it was 100 µM; in that of `COc1ccc(S(=O)(=O)Nc2cccc3cccnc23)cc1`, 100 µM; in that of `COc1ccccc1S(=O)(=O)Nc1cccc2cccnc12`, 100 µM.

As for `Cc1cc(NS(=O)(=O)c2ccccc2)c2ncccc2c1C`, the IC50 was 100 µM. `O=S(=O)(Nc1c(O)ccc2cccnc12)c1ccccc1`: the IC50 came out at 100 µM. Consider `CCc1ccc2cccnc2c1NS(=O)(=O)c1ccccc1`, for which the half-maximal inhibitory concentration (IC50) was 100 µM. In the case of `O=S(=O)(Nc1ccc(Cl)c2cccnc12)c1ccc(Cl)cc1Cl` it was 100 µM; in that of `O=S(=O)(Nc1cccc2cccnc12)c1c(Cl)cccc1Cl`, 100 µM; in that of `Cc1ccc2cccnc2c1NS(=O)(=O)c1ccccc1`, 100 µM. The same measure for `COc1ccnc2c3c(ccc12)-c1ccccc1S(=O)(=O)N3`: 100 µM; for `COC(=O)c1ccnc2c(NS(=O)(=O)c3ccccc3)cccc12`: 50 µM. In the case of `Cc1ccc(S(=O)(=O)Nc2cccc3cc(C)cnc23)c(N)c1` it was 100 µM; in that of `COc1cc(NS(=O)(=O)Nc2cccc(Cl)c2C)c2ncccc2c1`, 100 µM; in that of `COc1ccc(S(=O)(=O)Nc2cccc3cccnc23)c(N)c1`, 100 µM. Regarding `Cc1cc(C)c(S(=O)(=O)Nc2c(Cl)cc(Cl)c3cccnc23)c(C)c1`, the IC50 amounted to 100 µM. In the case of `CCOc1cc(NS(=O)(=O)c2ccccc2)c2ncccc2c1` it was 100 µM; in that of `Nc1cc(C(F)(F)F)ccc1S(=O)(=O)Nc1ccc(Cl)c2cccnc12`, 100 µM; in that of `Cc1ccccc1S(=O)(=O)Nc1cccc2cccnc12`, 100 µM.

`COc1ccc2cccnc2c1NS(=O)(=O)c1ccccc1`: the IC50 is 100 µM.

With `Cc1cnc2c(NS(=O)(=O)c3ccc(Cl)cc3Cl)cccc2c1`, the IC50 amounted to 100 µM. As for `Cc1cccc(Cl)c1S(=O)(=O)Nc1cccc2cccnc12`, the IC50 worked out at 100 µM.

On to `COc1cc(NS(=O)(=O)c2ccc(Cl)cc2Cl)c2ncccc2c1`, for which the IC50 was determined as 100 µM.
